From patent US20200383985A1, “Inhibitors of Protease Activated Receptor-2” (Endosome Therapeutics, Inc., priority 2017, published 2020)
pIC50: −log10 of the molar value. Where two headings read alike, the source gives them in different places.

Tests used:
Type in all cases: cell-based
human (h) PAR2 = biological target: T1, human (h) PAR2 (Homo sapiens, UniProt P55085); experiment: IP1 accumulation assay in KNRK-hPAR2 cells; settings: for inhibition at 30 µM: 100 nM 2F, 30 μM of antagonist, read-out: KNRK-PAR2 100 nM 2F: ND (inhibition of 2F at 30 μM of antagonist); for IC50: 2F (100 nM)-induced IP1, KNRK-hPAR2 cells, read-out: KNRK-PAR2 100 nM 2F pIC50 ± SEM (converted)
T1 construct: expressed in transfected cells; host or cells: KNRK cells (KNRK-hPAR2)
T1 sequence (P55085 26-397): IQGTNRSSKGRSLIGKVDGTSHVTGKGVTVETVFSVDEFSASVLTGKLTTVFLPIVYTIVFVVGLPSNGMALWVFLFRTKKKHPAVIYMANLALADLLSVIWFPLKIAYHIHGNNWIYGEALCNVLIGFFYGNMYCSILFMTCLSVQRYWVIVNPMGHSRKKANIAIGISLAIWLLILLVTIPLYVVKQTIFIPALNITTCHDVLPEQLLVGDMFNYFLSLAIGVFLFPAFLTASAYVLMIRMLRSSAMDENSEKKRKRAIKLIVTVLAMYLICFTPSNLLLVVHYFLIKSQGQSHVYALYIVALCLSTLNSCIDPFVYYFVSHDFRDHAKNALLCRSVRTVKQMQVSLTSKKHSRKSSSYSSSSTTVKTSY
Procedure: (§1) KNRK-hPAR2, KNRK or HT-29 cells were seeded at a density of 50×10^3 cells/well in a clear poly-d-lysine coated 96 well tissue culture plate. Following 24 h incubation at 37° C. and 5% CO2, media was removed and replaced with 80 μl IP1 stimulation buffer (10 mM HEPES, 1 mM CaCl2, 0.5 mM MgCl2, 4.2 mM KCl, 146 mM NaCl, 5.5 mM glucose, 50 mM LiCl). Following stimulation buffer addition, the wells received 10 μl of 10× antagonists or DMSO vehicle. All plates were further incubated at 37° C., 5% CO2 for 30 min. 10 μl of 2F or ATP was added to the plates and further incubated for 40 min. Following incubation, stimulation buffer was quickly removed by aspiration and replaced with 25 μl lysis buffer (IP-One HTRF® assay kit, Cisbio). Following incubation of the lysates at 37° C., 5% CO2 for 10′, 10 μl lysate was transferred to a 384-well OptiPlate (PerkinElmer) and detected using the IP-One HTRF® assay kit (Cisbio).
(§2) Compounds of the invention (added at 10×concentrations in a 10 μL volume) were incubated for 30 min prior to the addition of 10 μM ATP or 100 nM or 300 nM PAR2 agonist (2F; EC80, added at 10×concentrations in a 10 μL volume) and then further incubated for 40 min. After lysis, the inositol phosphate 1 was quantified with IP-One HTRF® assay kit, Cisbio. The data was analysed with Prism, GraphPad to calculate the IC50 values, shown below in Table 1.
(§3) Inhibition of PAR2 signaling with known PAR2 inhibitor I-343 (FIG. 14A) was investigated in HT-29 cells and HEK293 cells, which express endogenous PAR2, and in KNRK cells expressing human (h) PAR2. Accumulation of inositol phosphate-1 (IP1) was measured in response to the PAR2-selective agonist 2-Furoyl-LIGRLO-NH2 (2F), an analogue of the trypsin-exposed tethered ligand, or trypsin.
(§4) KNRK-hPAR2, KNRK, HEK293, or HT-29 cells were seeded at a density of 50×10^3 cells/well onto clear 96-well plates (PerkinElmer). After 24 h of culture, medium was replaced with IP1 stimulation buffer (10 mM HEPES, 1 mM CaCl2, 0.5 mM MgCl2, 4.2 mM KCl, 146 mM NaCl, 5.5 mM glucose, 50 mM LiCl; 37° C., 5% CO2.). Cells were pre-incubated with the antagonist or vehicle for 30 min prior to the addition of agonist. Cells were then further incubated for 40 min. Stimulation buffer was […]

PAR2 = biological target: T2, PAR2 (Homo sapiens, UniProt P55085); experiment: IP1 accumulation assay in HT-29 cells (endogenous PAR2); settings: 2F (300 nM)-induced IP1, HT-29 cells; for pIC50: read-out: HT-29 300 nM 2F (IC50); for IC50: read-out: HT-29 300 nM 2F pIC50 ± SEM (converted)
T2 construct: HT-29 cells and HEK293 cells, which express endogenous PAR2; endogenous in cells; host or cells: HT-29
T2 sequence (P55085 26-397): T1 sequence (P55085 26-397)
Procedure: as §1, §2, §3, §4

mouse DRG neurons = experiment: Patch clamp rheobase of DRG neurons: protease-induced hyperexcitability of nociceptors

Compound	inhibition at 30 µM (human (h) PAR2) [%]	pIC50 (PAR2)	IC50 (PAR2) [nM]	further results
CC(C)(C)c1cc(-c2ccc(F)cc2)nn2cc(C(=O)N3CCN(C(=O)CCS(=O)(=O)O)CC3(C)C)nc12 [Compound 1, 3-(4-(8-(tert-butyl)-6-(4-fluorophenyl)imidazo[1,2-b]pyridazine-2-carbonyl)-3,3-dimethylpiperazin-1-yl)-3-oxopropane-1-sulfonic acid]	< 50	5.23		
CC(C)(C)c1cc(-c2ccc(F)cc2)nn2cc(C(=O)N3CCN(C(=O)c4cn(CC(=O)O)nn4)CC3(C)C)nc12 [Compound 2, 2-(4-(4-(8-(tert-butyl)-6-(4-fluorophenyl)imidazo[1,2-b]pyridazine-2-carbonyl)-3,3-dimethylpiperazine-1-carbonyl)-1H-1,2,3-triazol-1-yl)acetic acid]	< 50	6.85	138	
CC(C)(C)c1cc(-c2ccc(F)cc2)nn2cc(C(=O)N3CCN(C(=O)[C@H]4CC[C@@H](C(=O)NC[C@H](O)[C@@H](O)[C@H](O)[C@H](O)CO)CC4)CC3(C)C)nc12 [Compound 3, (1S,4R)-4-(4-(8-(tert-butyl)-6-(4-fluorophenyl)imidazo[1,2-b]pyridazine-2-carbonyl)-3,3-dimethylpiperazine-1-carbonyl)-N-((2S,3R,4R,5R)-2,3,4,5,6-pentahydroxyhexyl)cyclohexane-1-carboxamide]		7.40	40.7	IC50 (human (h) PAR2): > 10 µM
CC(C)(C)c1cc(-c2ccc(F)cc2)cc2nc(C(=O)N3CCN(C(=O)CCC(=O)NC[C@H](O)[C@@H](O)[C@H](O)[C@H](O)CO)CC3(C)C)oc12 [Compound 4, 4-(4-(7-(tert-butyl)-5-(4-fluorophenyl)benzo[d]oxazole-2-carbonyl)-3,3-dimethylpiperazin-1-yl)-4-oxo-N-((2S,3R,4R,5R)-2,3,4,5,6-pentahydroxyhexyl)butanamide]	< 50		> 10000	
CC(C)(C)c1cc(-c2ccc(F)cc2)nn2cc(C(=O)N3CCN(C(=O)c4cn(CC(=O)NCCOCCOCCO)nn4)CC3(C)C)nc12 [Compound 5, 2-(4-(4-(8-(tert-butyl)-6-(4-fluorophenyl)imidazo[1,2-b]pyridazine-2-carbonyl)-3,3-dimethylpiperazine-1-carbonyl)-1H-1,2,3-triazol-1-yl)-N-(2-(2-(2-hydroxyethoxy)ethoxy)ethyl)acetamide]	< 50		180	
CC(C)(C)c1cc(-c2ccc(F)cc2)nn2cc(C(=O)N3CCN(C(=O)c4cn(CC(=O)NCCOCCOCCOCCOCCOCCO)nn4)CC3(C)C)nc12 [Compound 6, 2-(4-(4-(8-(tert-butyl)-6-(4-fluorophenyl)imidazo[1,2-b]pyridazine-2-carbonyl)-3,3-dimethylpiperazine-1-carbonyl)-1H-1,2,3-triazol-1-yl)-N-(17-hydroxy-3,6,9,12,15-pentaoxaheptadecyl)acetamide]	< 50	6.01		
CC(C)(C)c1cc(-c2ccc(F)cc2)nn2cc(C(=O)N3CCN(C(=O)[C@H]4CC[C@@H](NC(=O)[C@H](O)[C@@H](O)[C@@H](O)[C@H](O)C(N)=O)CC4)CC3(C)C)nc12 [Compound 7, (2R,3S,4R,5S)—N1-((1s,4S)-4-(4-(8-(tert-butyl)-6-(4-fluorophenyl)imidazo[1,2-b]pyridazine-2-carbonyl)-3,3-dimethylpiperazine-1-carbonyl)cyclohexyl)-2,3,4,5-tetrahydroxyhexanediamide]	< 50	6.39	406	
COC(=O)C12CCC(C(=O)N3CCN(C(=O)c4cn5nc(-c6ccc(F)cc6)cc(C(C)(C)C)c5n4)C(C)(C)C3)(CC1)CC2 [Compound 8, methyl 4-(4-(8-(tert-butyl)-6-(4-fluorophenyl)imidazo[1,2-b]pyridazine-2-carbonyl)-3,3-dimethylpiperazine-1-carbonyl)bicyclo[2.2.2]octane-1-carboxylate]			42.7	IC50 (human (h) PAR2): > 10 µM
CC(C)CCC[C@@H](C)[C@H]1CCC2C3CCC4C[C@@H](OC(=O)C[C@H](NC(=O)CCOCCOCCNC(=O)Cn5cc(C(=O)N6CCN(C(=O)c7cn8nc(-c9ccc(F)cc9)cc(C(C)(C)C)c8n7)C(C)(C)C6)nn5)C(N)=O)CC[C@]4(C)C3CC[C@@]21C (stereo partly drawn) [Compound 9, (3S,10S,13R,17R)-10,13-dimethyl-17-((R)-6-methylheptan-2-yl)hexadecahydro-1H-cyclopenta[a]phenanthren-3-yl (14S)-1-(4-(4-(8-(tert-butyl)-6-(4-fluorophenyl)imidazo[1,2-b]pyridazine-2-carbonyl)-3,3-dimethylpiperazine-1-carbonyl)-1H-1,2,3-triazol-1-yl)-14-carbamoyl-2,12-dioxo-6,9-dioxa-3,13-diazahexadecan-16-oate]	< 50	6.15		
CC(C)CCC[C@@H](C)[C@H]1CCC2C3CCC4C[C@@H](OC(=O)C[C@H](NC(=O)CCOCCOCCOCCOCCNC(=O)Cn5cc(C(=O)N6CCN(C(=O)c7cn8nc(-c9ccc(F)cc9)cc(C(C)(C)C)c8n7)C(C)(C)C6)nn5)C(N)=O)CC[C@]4(C)C3CC[C@@]21C (stereo partly drawn) [Compound 11, (3S,10S,13R,17R)-10,13-dimethyl-17-((R)-6-methylheptan-2-yl)hexadecahydro-1H-cyclopenta[a]phenanthren-3-yl (20S)-1-(4-(4-(8-(tert-butyl)-6-(4-fluorophenyl)imidazo[1,2-b]pyridazine-2-carbonyl)-3,3-dimethylpiperazine-1-carbonyl)-1H-1,2,3-triazol-1-yl)-20-carbamoyl-2,18-dioxo-6,9,12,15-tetraoxa-3,19-diazadocosan-22-oate]	< 50	6.01		
CC(C)CCC[C@@H](C)[C@H]1CCC2C3CCC4C[C@@H](OC(=O)C[C@H](NC(=O)CCOCCOCCOCCOCCOCCOCCOCCOCCNC(=O)Cn5cc(C(=O)N6CCN(C(=O)c7cn8nc(-c9ccc(F)cc9)cc(C(C)(C)C)c8n7)C(C)(C)C6)nn5)C(N)=O)CC[C@]4(C)C3CC[C@@]21C (stereo partly drawn) [Compound 12, (3S,10S,13R,17R)-10,13-dimethyl-17-((R)-6-methylheptan-2-yl)hexadecahydro-1H-cyclopenta[a]phenanthren-3-yl (32S)-1-(4-(4-(8-(tert-butyl)-6-(4-fluorophenyl)imidazo[1,2-b]pyridazine-2-carbonyl)-3,3-dimethylpiperazine-1-carbonyl)-1H-1,2,3-triazol-1-yl)-32-carbamoyl-2,30-dioxo-6,9,12,15,18,21,24,27-octaoxa-3,31-diazatetratriacontan-34-oate]	< 50	6.08		
CN(C)CCCn1cc(C2=C(c3c[nH]c4ccccc34)C(=O)NC2=O)c2ccccc21 [GF109203X]				initial trypsin-induced hyperexcitability (mouse DRG neurons): prevented; persistent trypsin-induced hyperexcitability (mouse DRG neurons): not
CC(C)c1ccc(Cn2ccc3c4c(N)nc(NC5CC5)nc4ccc32)cc1 [SCH79797]				rheobase response to trypsin (PAR1 antagonist) (mouse DRG neurons; 1 μM): did not affect; rheobase, antagonist alone (mouse DRG neurons; 1 μM): no effect; thrombin-induced immediate decrease in rheobase (mouse DRG neurons; thrombin 50 nM, 20 min, antagonist 1 μM, 10 min preincubation): prevented
thrombin				rheobase after protease (mouse DRG neurons; trypsin 50 nM 10 min, NE 390 nM 30 min, CS 500 nM 60 min, thrombin 50 nM 20 min, washed): immediate decrease in rheobase
